Columns and labels:
[1] = biological target: T1, Transient receptor potential cation channel subfamily A member 1 (Rattus norvegicus, UniProt Q6RI86); assay: Agonist activity at rat TRPA1 expressed in HEK293 cells assessed as induction of intracellular calcium level; type: cell-based
[2] = biological target: Transient receptor potential cation channel subfamily A member 1 (Rattus norvegicus) (UniProt Q6RI86); assay: Agonist activity at rat TRPA1 expressed in HEK293 cells assessed as induction of intracellular calcium level relative to allyl isothiocyanate; type: cell-based
[3] = biological target: T2, Transient receptor potential cation channel subfamily V member 1 (Homo sapiens, UniProt Q8NER1); assay: Antagonist activity at human TRPV1 expressed in HEK293 cells assessed as inhibition of […]-induced increase of intracellular calcium level; type: cell-based
[4] = biological target: T2, Transient receptor potential cation channel subfamily V member 1; assay: Agonist activity at human TRPV1 expressed in HEK293 cells assessed as induction of intracellular calcium level relative to […]; type: cell-based
[5] = biological target: T1, Transient receptor potential cation channel subfamily A member 1; assay: Antagonist activity at rat TRPA1 expressed in HEK293 cells assessed as inhibition of allyl isothiocyanate-induced increase of intracellular calcium level; type: cell-based
[6] = biological target: T1, Transient receptor potential cation channel subfamily A member 1; assay: Antagonist activity at rat TRPA1 expressed in HEK293 cells assessed as inhibition of AITC-induced increase of intracellular calcium level; type: cell-based
[7] = biological target: T1, Transient receptor potential cation channel subfamily A member 1; assay: Agonist activity at rat TRPA1 expressed in HEK293 cells assessed as induction of intracellular calcium level in presence of AITC; type: cell-based
[8] = biological target: Transient receptor potential cation channel subfamily A member 1 (Homo sapiens, UniProt O75762); assay: Antagonist activity at human TRPA1 expressed in HEK293 cells assessed as inhibition of allyl isothiocyanate-induced increase of intracellular calcium level; type: cell-based
[9] = biological target: T2, Transient receptor potential cation channel subfamily V member 1; assay: Antagonist activity at human TRPV1 expressed in HEK293 cells; type: cell-based
[10] = biological target: T2, Transient receptor potential cation channel subfamily V member 1; assay: Antagonist activity at human TRPV1 expressed in HEK293 cells assessed as inhibition of capsaicin-induced increase of intracellular calcium level; type: cell-based
[11] = biological target: T2, Transient receptor potential cation channel subfamily V member 1; assay: Antagonist activity at TRPV1 (unknown origin) in DRG neurons

T1 sequence (Q6RI86 whole entry): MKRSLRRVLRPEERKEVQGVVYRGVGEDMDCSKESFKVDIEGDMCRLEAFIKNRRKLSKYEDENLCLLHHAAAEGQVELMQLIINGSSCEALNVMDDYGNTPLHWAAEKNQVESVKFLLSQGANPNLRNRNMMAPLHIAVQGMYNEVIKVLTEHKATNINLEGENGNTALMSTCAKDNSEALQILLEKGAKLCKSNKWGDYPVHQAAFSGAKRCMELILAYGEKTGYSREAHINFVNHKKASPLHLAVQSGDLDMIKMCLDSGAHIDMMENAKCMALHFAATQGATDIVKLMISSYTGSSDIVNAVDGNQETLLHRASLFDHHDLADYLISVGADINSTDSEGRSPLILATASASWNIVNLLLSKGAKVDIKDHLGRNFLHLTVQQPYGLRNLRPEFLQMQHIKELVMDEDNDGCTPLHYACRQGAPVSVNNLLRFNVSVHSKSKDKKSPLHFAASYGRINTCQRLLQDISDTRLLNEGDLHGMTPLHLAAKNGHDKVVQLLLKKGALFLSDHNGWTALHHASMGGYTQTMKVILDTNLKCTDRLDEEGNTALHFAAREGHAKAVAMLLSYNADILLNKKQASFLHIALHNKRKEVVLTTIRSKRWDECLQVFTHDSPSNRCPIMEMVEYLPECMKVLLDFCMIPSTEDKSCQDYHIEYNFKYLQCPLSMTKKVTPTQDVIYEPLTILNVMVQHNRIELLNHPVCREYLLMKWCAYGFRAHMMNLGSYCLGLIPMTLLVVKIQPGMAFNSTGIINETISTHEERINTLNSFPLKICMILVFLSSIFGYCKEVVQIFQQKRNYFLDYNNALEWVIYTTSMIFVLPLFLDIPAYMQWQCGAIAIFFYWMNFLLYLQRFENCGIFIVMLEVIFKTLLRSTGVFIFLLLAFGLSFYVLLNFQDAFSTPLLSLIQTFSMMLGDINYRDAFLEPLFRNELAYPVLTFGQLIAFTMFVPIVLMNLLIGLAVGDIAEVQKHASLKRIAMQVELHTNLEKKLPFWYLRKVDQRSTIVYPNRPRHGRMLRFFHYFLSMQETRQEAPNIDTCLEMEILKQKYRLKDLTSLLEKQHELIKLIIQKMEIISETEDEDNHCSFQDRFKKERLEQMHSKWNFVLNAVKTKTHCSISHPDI
Chain of Transient receptor potential cation channel subfamily A member 1 (Rattus norvegicus) (Q6RI86 whole entry): as above
T2 sequence (Q8NER1 whole entry): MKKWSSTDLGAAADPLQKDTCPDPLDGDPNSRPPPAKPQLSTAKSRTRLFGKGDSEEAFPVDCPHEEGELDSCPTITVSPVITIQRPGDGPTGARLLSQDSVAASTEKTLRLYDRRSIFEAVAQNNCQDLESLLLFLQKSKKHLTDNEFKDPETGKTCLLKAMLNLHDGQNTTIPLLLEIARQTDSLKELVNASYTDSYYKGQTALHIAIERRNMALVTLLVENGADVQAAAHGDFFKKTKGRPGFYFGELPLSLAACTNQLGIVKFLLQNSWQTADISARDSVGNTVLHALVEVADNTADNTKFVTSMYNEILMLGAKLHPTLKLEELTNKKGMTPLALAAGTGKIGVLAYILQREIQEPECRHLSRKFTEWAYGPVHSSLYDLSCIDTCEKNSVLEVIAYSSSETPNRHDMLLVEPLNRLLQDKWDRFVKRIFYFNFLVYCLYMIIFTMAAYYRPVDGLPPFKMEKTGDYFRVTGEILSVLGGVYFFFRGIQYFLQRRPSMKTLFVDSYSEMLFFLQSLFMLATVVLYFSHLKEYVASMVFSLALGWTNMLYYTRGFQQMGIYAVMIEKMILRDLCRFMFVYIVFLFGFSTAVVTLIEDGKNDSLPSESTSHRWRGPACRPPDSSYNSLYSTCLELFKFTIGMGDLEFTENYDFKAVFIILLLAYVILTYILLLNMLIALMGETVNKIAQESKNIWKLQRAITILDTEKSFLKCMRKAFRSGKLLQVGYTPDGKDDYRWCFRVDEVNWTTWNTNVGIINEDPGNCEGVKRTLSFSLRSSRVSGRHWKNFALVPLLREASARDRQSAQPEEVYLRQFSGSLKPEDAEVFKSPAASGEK
Chain of Transient receptor potential cation channel subfamily A member 1 (Homo sapiens, UniProt O75762) (O75762 whole entry): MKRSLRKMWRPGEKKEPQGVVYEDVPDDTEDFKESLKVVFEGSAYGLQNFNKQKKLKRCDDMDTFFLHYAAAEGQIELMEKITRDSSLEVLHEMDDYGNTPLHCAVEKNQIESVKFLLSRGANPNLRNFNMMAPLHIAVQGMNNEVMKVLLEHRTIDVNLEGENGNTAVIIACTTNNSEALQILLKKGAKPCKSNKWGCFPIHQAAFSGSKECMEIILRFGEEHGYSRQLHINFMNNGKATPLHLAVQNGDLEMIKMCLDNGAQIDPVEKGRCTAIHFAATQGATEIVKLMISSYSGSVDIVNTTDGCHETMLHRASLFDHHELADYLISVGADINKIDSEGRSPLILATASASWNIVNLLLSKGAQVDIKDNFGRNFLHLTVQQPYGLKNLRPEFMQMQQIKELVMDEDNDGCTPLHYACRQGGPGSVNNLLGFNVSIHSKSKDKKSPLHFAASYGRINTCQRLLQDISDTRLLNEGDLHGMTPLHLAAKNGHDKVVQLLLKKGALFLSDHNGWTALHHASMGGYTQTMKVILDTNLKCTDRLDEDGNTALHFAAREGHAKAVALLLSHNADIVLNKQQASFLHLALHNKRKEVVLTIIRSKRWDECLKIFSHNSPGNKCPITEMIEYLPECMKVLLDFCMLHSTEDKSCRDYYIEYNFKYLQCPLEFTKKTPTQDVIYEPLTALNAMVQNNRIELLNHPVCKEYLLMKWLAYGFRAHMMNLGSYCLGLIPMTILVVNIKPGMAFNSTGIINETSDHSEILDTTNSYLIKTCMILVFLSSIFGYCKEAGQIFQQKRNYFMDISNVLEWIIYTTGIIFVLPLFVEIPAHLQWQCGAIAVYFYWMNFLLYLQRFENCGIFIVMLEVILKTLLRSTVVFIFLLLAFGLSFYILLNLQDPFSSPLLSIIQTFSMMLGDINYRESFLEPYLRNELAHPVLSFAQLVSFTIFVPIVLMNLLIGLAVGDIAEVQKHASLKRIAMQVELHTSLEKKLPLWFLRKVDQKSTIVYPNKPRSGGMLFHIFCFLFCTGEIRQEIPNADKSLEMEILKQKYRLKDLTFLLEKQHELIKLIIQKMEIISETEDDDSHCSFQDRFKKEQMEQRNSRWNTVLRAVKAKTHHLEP

| SMILES | EC50 [1] | Efficacy [2] | IC50 [3] | Efficacy [4] | IC50 [5] | IC50 [6] | IC50 [7] | IC50 [8] | IC50 [9] | IC50 [10] | IC50 [11] |
| --- | --- | --- | --- | --- | --- | --- | --- | --- | --- | --- | --- |
| CC(=O)Oc1ccccc1/C=C/c1ccccc1 | 7.2 µM | 135% | > 10 µM | < 10% | 8.6 µM | – | – | – | – | – | – |
| COc1ccc(/C=C/c2ccc(OC)cc2)cc1 | 4.2 µM | 86.7% | > 10 µM | < 10% | 10.6 µM | – | – | – | – | – | – |
| Oc1ccc(/C=C/c2cc(O)cc(O)c2)cc1 [RESVERATROL] | – | < 10% | – | – | 19.9 µM | 0.75 µM | 2.74 µM | – | – | – | – |
| COc1ccc(/C=C/c2cc(OC)cc(OC)c2)cc1 [TRISMETHOXYRESVERATROL] | 1.7 µM | 72.5% | > 10 µM | < 10% | 3 µM | – | – | – | – | – | – |
| COc1cc(/C=C/c2ccccc2)cc(OC)c1 [3,5-O-DIMETHYLPINOSYLVIN] | 1.7 µM | 84.1% | > 10 µM | < 10% | 3.4 µM | – | – | – | – | – | – |
| COc1ccc(/C=C/c2ccccc2)cc1 | 2.4 µM | 49% | > 10 µM | < 10% | 17.8 µM | – | – | 12.1 µM | – | – | – |
| Oc1cccc(/C=C/c2ccccc2)c1 [(E)-3-STILBENOL] | 1.8 µM | 77.4% | > 10 µM | < 10% | 3.4 µM | – | – | – | – | – | – |
| COc1cc(/C=C/c2ccc(O)cc2)cc(OC)c1 [PTEROSTILBENE] | 3.6 µM | 71.1% | > 10 µM | < 10% | 7.5 µM | – | – | – | – | – | – |
| Oc1ccc(/C=C/c2ccccc2)cc1 [(E)-4-STYRYLPHENOL] | 8.4 µM | 61.9% | > 10 µM | < 10% | 5.5 µM | – | – | – | – | – | – |
| COc1ccc(/C=C/c2ccc(O)cc2)cc1 | 10.1 µM | 72.1% | > 10 µM | < 10% | 10 µM | – | – | – | – | – | – |
| Oc1ccccc1/C=C/c1ccccc1 | 0.58 µM | 88.4% | > 10 µM | < 10% | 2.2 µM | – | – | – | – | – | – |
| COc1cccc(/C=C/c2ccc(O)cc2)c1 [(E)-5-METHOXY-4'-STILBENOL] | 6.6 µM | 41.8% | > 10 µM | < 10% | 10.1 µM | – | – | – | – | – | – |
| COc1ccccc1/C=C/c1ccccc1 | 0.88 µM | 83.4% | > 10 µM | < 10% | 1.7 µM | – | – | – | – | – | – |
| COc1ccc(/C=C/c2cccc(OC)c2)cc1 | 1.5 µM | 75% | > 10 µM | < 10% | 2.9 µM | – | – | – | – | – | – |
| CC(=O)Oc1ccc(/C=C/c2cc(OC(C)=O)cc(OC(C)=O)c2)cc1 [TRIACETYLRESVERATROL] | 7.5 µM | 127% | > 10 µM | < 10% | 11.8 µM | – | – | – | – | – | – |
| Oc1ccc(/C=C/c2ccc(O)cc2)cc1 [TRANS-4,4'-DIHYDROXYSTILBENE] | 11 µM | 40% | > 10 µM | < 10% | 25.2 µM | – | – | – | – | – | – |
| Oc1cc(O)cc(/C=C/c2ccccc2)c1 [PINOSYLVIN] | – | < 10% | > 10 µM | < 10% | 12.1 µM | – | – | – | – | – | – |
| CC(=O)Oc1ccc(/C=C/c2ccccc2)cc1 | 16.3 µM | 89.7% | > 10 µM | < 10% | 29.4 µM | – | – | – | – | – | – |
| Oc1ccc(/C=C/c2cccc(O)c2)cc1 [(E)-3,4'-STILBENDIOL] | 13.5 µM | 73.4% | > 10 µM | < 10% | 16.5 µM | – | – | – | – | – | – |
| COc1cc(O)cc(/C=C/c2ccccc2)c1 [PINOSYLVIN METHYL ETHER] | 3.5 µM | 71.4% | > 10 µM | < 10% | 6.9 µM | – | – | – | 15 µM | 23.7 µM | 30 µM |
| COc1cccc(/C=C/c2ccccc2)c1 | 1.7 µM | 101% | > 10 µM | < 10% | 2.3 µM | – | – | – | – | – | – |

Source: ChEMBL document CHEMBL3751759, “TRPA1 channels as targets for resveratrol and related stilbenoids” (Bioorg Med Chem Lett, 2016)
